Assays:
powdery mildew = assay: Test Example 9: control test of wheat powdery mildew, cup in greenhouse, inoculated, Norin No. 61 (Tables 10 to 14); assay type: in vivo, Blumeria graminis; set-up: key to Degree of Disease Occurrence: Σ(index×leaves)/(4×leaves investigated)×100; 0 = no disease, 100 = max
Experimental: (§1) Degree of Disease Occurrence=Σ(Index×Number of Leaves of Index)/(4×Number of Investigated Leaves)×100 (1)
Seed of wheat (variety: Norin No. 61) was used, and 100 ml of suspension waters each containing the compound shown in Table 10 at an amount shown in […] (synthesis was performed in accordance with a known method, a solution dissolved in DMSO or formulated 10% wettable powder was used) were prepared. The seed having a mass of 1 kg of wheat was mixed into the suspension water with a chemical treated amount shown in Table 10, and air-dried, and then, 5 seeds were sown in a plastic cup having a diameter of 6 cm containing river sand and managed in a greenhouse. In Comparative Examples, 20 ml of the suspension water of an active ingredient, which had been adjusted to have a concentration shown in Table 10, was sprayed in a frame of 45 cm×45 cm in which a pot of wheat seedlings was placed (corresponding to 1000 L/ha) 14 days after seeding. On day 14 after seeding, conidiospores of powdery mildew were sifted over leaves of wheat seedlings and inoculated onto the leaves (after the sprayed liquid was dried in the case of Comparative Examples), a lesion area ratio of powdery mildew in a first leaf was investigated 21 days after seeding according to the criteria in Table 1, and the degree of disease occurrence was calculated by the above calculation formula (1).

septoria leaf blotch = assay: Test Example 10: control test of septoria leaf blotch of wheat, cup in greenhouse, inoculated, variety ARKEOS (Tables 15 to 19); assay type: in vivo, Septoria tritici; conditions: Table 17; for Degree of Disease Occurrence: untreated 50.0; for Disease Leaf Rate (%): untreated 100.0
Experimental: as §1
Seed of wheat (variety: ARKEOS) was used, and 100 ml of suspension waters each containing the compound shown in Table 15 at an amount shown in Table 15 (synthesis was performed in accordance with a known method, a liquid dissolved in a small amount of DMSO or formulated 10% wettable powder was used) were prepared. Seed having a mass of 1 kg was mixed into the suspension water with a rate shown in Examples of Table 15, and air-dried, and then, 5 seeds were sown in a plastic cup having a diameter of 6 cm containing mixed soil of river sand and horticultural soil and managed in a greenhouse. In Comparative Examples, 20 ml of suspension water of an active ingredient, which had been adjusted to have a concentration shown in Table 15 to 19, was sprayed in a frame of 45 cm×45 cm in which a pot of wheat seedlings was placed (corresponding to 1000 L/ha) 14 days after seeding. On day 14 after seeding, a spore suspension in which conidiospores of septoria leaf blotch are suspended was sprayed and inoculated on leaves of wheat seedlings (after the sprayed liquid was dried in the case of Comparative Examples), a lesion area ratio of septoria leaf blotch in a second leaf was investigated approximately 35 days after seeding according to the criteria in Table 1, and the degree of disease occurrence was calculated by the above calculation formula (1).

[1] = Table 11 run (different day), Foliage Treatment, spray 50 ppm (50 g/ha)
[2] = Table 11 run (different day), Seed Treatment 0.5 g/Seed 1 kg (50 g/ha)
[3] = Table 13 run (different day), Foliage Treatment, spray 50 ppm (50 g/ha)
[4] = Table 13 run (different day), Seed Treatment 0.5 g/Seed 1 kg (50 g/ha)
[5] = Foliage Treatment, spray 10 ppm suspension water (corresponding to 10 g/ha) 14 days after seeding
[6] = Foliage Treatment, spray 100 ppm suspension water (corresponding to 100 g/ha) 14 days after seeding
[7] = Seed Treatment, 0.1 g/Seed 1 kg (corresponding to 10 g/ha)
[8] = Seed Treatment, 1 g/Seed 1 kg (corresponding to 100 g/ha)
[9] = Table 11 run (different day), Foliage Treatment, spray 10 ppm (10 g/ha)
[10] = Table 11 run (different day), Seed Treatment 0.1 g/Seed 1 kg (10 g/ha)
[11] = Table 13 run (different day), Foliage Treatment, spray 10 ppm (10 g/ha)
[12] = Table 13 run (different day), Seed Treatment 0.1 g/Seed 1 kg (10 g/ha)
[13] = Foliage Treatment, spray 5 ppm suspension water (corresponding to 5 g/ha) 14 days after seeding
[14] = Foliage Treatment, spray 50 ppm suspension water (corresponding to 50 g/ha) 14 days after seeding
[15] = Seed Treatment, 0.05 g/Seed 1 kg (corresponding to 5 g/ha)
[16] = Seed Treatment, 0.5 g/Seed 1 kg (corresponding to 50 g/ha)
[17] = Table 10 run, Foliage Treatment, spray 5 ppm (5 g/ha) day 14, first leaf, 21 days after seeding
[18] = Table 10 run, Foliage Treatment, spray 10 ppm (10 g/ha) day 14, first leaf, 21 days after seeding
[19] = Table 10 run, Seed Treatment 0.05 g/Seed 1 kg (5 g/ha), first leaf, 21 days after seeding
[20] = Table 10 run, Seed Treatment 0.1 g/Seed 1 kg (10 g/ha), first leaf, 21 days after seeding

Compound | Degree of Disease Occurrence (powdery mildew; [1]) | Disease Leaf Rate (%) (powdery mildew; [1]) | Degree of Disease Occurrence (powdery mildew; [2]) | Disease Leaf Rate (%) (powdery mildew; [2]) | Degree of Disease Occurrence (powdery mildew; [3]) | Disease Leaf Rate (%) (powdery mildew; [3]) | Degree of Disease Occurrence (powdery mildew; [4]) | Disease Leaf Rate (%) (powdery mildew; [4]) | Degree of Disease Occurrence (septoria leaf blotch; [5]) | Disease Leaf Rate (%) (septoria leaf blotch; [5]) | Degree of Disease Occurrence (septoria leaf blotch; [6]) | Disease Leaf Rate (%) (septoria leaf blotch; [6]) | Degree of Disease Occurrence (septoria leaf blotch; [7]) | Disease Leaf Rate (%) (septoria leaf blotch; [7]) | Degree of Disease Occurrence (septoria leaf blotch; [8]) | Disease Leaf Rate (%) (septoria leaf blotch; [8]) | Degree of Disease Occurrence (powdery mildew; [11]) | Disease Leaf Rate (%) (powdery mildew; [11]) | Degree of Disease Occurrence (powdery mildew; [12]) | Disease Leaf Rate (%) (powdery mildew; [12]) | further results
COC(=O)c1snc(Cl)c1Cl [Compound (7)] | 94.8 | 100% | 78.8 | 100% | 77.1 | 100.0% | 61.3 | 100.0% | 41.7 | 100.0% | 50.0 | 93.3% | 22.5 | 68.8% | 19.4 | 77.5% | – | – | – | – | –
CCOC(=O)c1snc(Cl)c1Cl [Compound (8)] | 94.8 | 100% | 75.1 | 96.4% | – | – | – | – | – | – | 26.7 | 93.3% | – | – | 8.8 | 35.0% | 72.8 | 100.0% | 49.7 | 95.8% | Degree of Disease Occurrence (powdery mildew; [9]): 96.9; Disease Leaf Rate (%) (powdery mildew; [9]): 100%; Degree of Disease Occurrence (powdery mildew; [10]): 80.2; Disease Leaf Rate (%) (powdery mildew; [10]): 100%; Degree of Disease Occurrence (septoria leaf blotch; [13]): 38.3; Disease Leaf Rate (%) (septoria leaf blotch; [13]): 100.0%; Degree of Disease Occurrence (septoria leaf blotch; [14]): 31.7; Disease Leaf Rate (%) (septoria leaf blotch; [14]): 100.0%; Degree of Disease Occurrence (septoria leaf blotch; [15]): 23.8; Disease Leaf Rate (%) (septoria leaf blotch; [15]): 90.0%; Degree of Disease Occurrence (septoria leaf blotch; [16]): 10.3; Disease Leaf Rate (%) (septoria leaf blotch; [16]): 36.3%
NC(=O)c1snc(Cl)c1Cl [Compound (9)] | – | – | – | – | – | – | – | – | – | – | – | – | – | – | – | – | – | – | – | – | Degree of Disease Occurrence (powdery mildew; [17]): 57.3; Disease Leaf Rate (%) (powdery mildew; [17]): 100.0%; Degree of Disease Occurrence (powdery mildew; [18]): 63.5; Disease Leaf Rate (%) (powdery mildew; [18]): 100.0%; Degree of Disease Occurrence (powdery mildew; [19]): 38.3; Disease Leaf Rate (%) (powdery mildew; [19]): 96.9%; Degree of Disease Occurrence (powdery mildew; [20]): 33.0; Disease Leaf Rate (%) (powdery mildew; [20]): 83.9%
COC(=N)c1snc(Cl)c1Cl [Compound (11)] | 97.9 | 100% | 79.7 | 100% | 67.6 | 99.6% | 40.8 | 100.0% | 31.7 | 93.3% | 41.7 | 100.0% | 22.5 | 80.0% | 26.5 | 67.5% | 72.6 | 98.4% | 50.1 | 95.0% | Degree of Disease Occurrence (septoria leaf blotch; [14]): 35.0; Disease Leaf Rate (%) (septoria leaf blotch; [14]): 100.0%; Degree of Disease Occurrence (septoria leaf blotch; [16]): 18.8; Disease Leaf Rate (%) (septoria leaf blotch; [16]): 63.8%

— US20220000117A1, “METHOD FOR CONTROLLING DISEASES IN SMALL GRAIN CEREALS, SEED OF SMALL GRAIN CEREALS, AND METHOD FOR SUPPRESSING LODGING DAMAGE IN SMALL GRAIN CEREALS” (KUMIAI CHEMICAL INDUSTRY CO., LTD., priority 2019, published 2022)
